Data published in ChEMBL document CHEMBL1132473 (J Med Chem, 1999).

Each molecule was assayed against 4-aminobutyrate aminotransferase, mitochondrial (Sus scrofa, UniProt P80147) (assay: Compound was tested for the inhibition of Gamma-amino-N-butyrate transaminase (GABA-AT)).
Sequence of 4-aminobutyrate aminotransferase, mitochondrial (P80147 whole entry): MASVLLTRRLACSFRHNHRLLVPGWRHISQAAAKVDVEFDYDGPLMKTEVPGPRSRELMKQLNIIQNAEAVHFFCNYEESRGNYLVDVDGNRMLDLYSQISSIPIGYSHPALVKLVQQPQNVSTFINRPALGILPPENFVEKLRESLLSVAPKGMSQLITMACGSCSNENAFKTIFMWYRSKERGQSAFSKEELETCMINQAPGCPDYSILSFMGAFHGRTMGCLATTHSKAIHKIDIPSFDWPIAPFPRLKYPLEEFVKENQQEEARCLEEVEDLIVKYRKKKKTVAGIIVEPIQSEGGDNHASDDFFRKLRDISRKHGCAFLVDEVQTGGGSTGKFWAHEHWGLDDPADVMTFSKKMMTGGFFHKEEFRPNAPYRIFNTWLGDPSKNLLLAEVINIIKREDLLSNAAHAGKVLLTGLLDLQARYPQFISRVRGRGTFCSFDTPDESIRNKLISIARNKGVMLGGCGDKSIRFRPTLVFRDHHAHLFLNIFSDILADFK
`N[C@@H]1CC=C(C(=O)O)C1` was tested, and the Ki was 1.2 mM.
`N[C@@H]1C=C[C@@H](C(=O)O)C1` showed a Ki of 38 mM.
Molecule `N[C@H]1C=C[C@@H](C(=O)O)C1` has a Ki of 2.7 mM.
`N[C@@H]1C=C[C@H](C(=O)O)C1` gave a Ki of 0.052 mM.
Work on `N[C@H]1CC=C(C(=O)O)C1` yielded a Ki of 72 mM.
In the case of `NC1C=CC(C(=O)O)C1` (racemic), the Ki is reported as 0.6 mM.
